Laboratory results reported in patent US8394788B2, “Phenylsulfoxyoxazole compound inhibitors of urea transporters” (The Regents of the University of California, priority 2006, dated 2013).

Assays:
rat UT-A1 = target: T1, rat UT-A1 (Rattus norvegicus, UniProt Q62668); assay: UT-A1-facilitated urea flux across MDCK-UT-A1 cell layers; format: cell-based; details: forskolin 10 μM; phloretin 0.7 mM
T1 sequence (Q62668 1-929): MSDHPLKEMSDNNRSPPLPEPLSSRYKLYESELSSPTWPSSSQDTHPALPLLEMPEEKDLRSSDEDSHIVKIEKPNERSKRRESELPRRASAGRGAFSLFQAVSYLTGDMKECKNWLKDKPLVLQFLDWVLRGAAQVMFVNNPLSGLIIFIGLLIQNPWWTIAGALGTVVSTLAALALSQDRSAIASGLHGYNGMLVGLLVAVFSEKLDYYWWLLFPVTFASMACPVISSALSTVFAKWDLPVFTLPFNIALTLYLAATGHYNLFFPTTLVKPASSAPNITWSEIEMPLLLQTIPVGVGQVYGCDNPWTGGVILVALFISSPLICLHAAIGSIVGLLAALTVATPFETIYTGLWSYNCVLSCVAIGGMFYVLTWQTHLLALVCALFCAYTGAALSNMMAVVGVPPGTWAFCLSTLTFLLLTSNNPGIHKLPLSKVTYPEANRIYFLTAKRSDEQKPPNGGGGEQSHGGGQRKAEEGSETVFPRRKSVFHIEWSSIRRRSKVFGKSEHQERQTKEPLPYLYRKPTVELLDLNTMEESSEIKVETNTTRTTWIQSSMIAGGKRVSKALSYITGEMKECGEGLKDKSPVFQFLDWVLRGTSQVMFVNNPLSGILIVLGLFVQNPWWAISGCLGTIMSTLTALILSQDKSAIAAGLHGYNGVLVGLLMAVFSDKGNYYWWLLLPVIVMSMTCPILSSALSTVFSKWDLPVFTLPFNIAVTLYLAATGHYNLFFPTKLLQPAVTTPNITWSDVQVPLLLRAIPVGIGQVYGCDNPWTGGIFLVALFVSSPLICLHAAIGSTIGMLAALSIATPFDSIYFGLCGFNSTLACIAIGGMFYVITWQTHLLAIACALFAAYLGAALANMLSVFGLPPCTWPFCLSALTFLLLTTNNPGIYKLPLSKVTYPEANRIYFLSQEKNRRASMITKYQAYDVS
Description: Concentration-inhibition studies were performed to study the effect of the active mouse UT-B inhibitors on urea transport by UT-A. The amino acid sequences of UT-B and UT-A urea transporter isoforms share significant similarity. The cells used in these studies were MDCK cells that expressed rat UT-A1. MDCK-UT-A1-expressing cells were grown on collagen-coated porous filters until they were electrically tight, at which point 15 mM urea was introduced into buffer bathing the basolateral cell surface. […]
UT-A1-facilitated urea flux in the basolateral-to-apical direction across unstimulated and forskolin-stimulated MDCK-UT-A1 cell layers was measured in response to a 15-mM urea gradient. […] Five μL samples of apical fluid were collected at specified times during incubation at 37° C., and urea concentration was determined using a commercial kit based on chromogenic urea complexation at 520-nm wavelength (Quantichrom™ Urea Assay Kit, BioAssay Systems, Hayward, Calif.). […] Aforsk, and Aphlor were averaged absorbance values (at 520 nm) for cultures treated with forskolin and forskolin+phloretin, respectively, and Atest were values from cultures treated with forskolin+test compound.

RBCs from wild-type mice = assay: Osmotic water permeability, RBCs from wild-type mice (stopped-flow); format: cell-based, mouse
Description: RBC urea and water permeabilities were assayed by stopped-flow light scattering using a Hi-Tech Sf-51 instrument (Wiltshire, UK). For measurement of urea permeability, dilutions of whole blood (human or mouse; see Example 1) in PBS (hematocrit: approximately 0.5%) were incubated with test compounds for 5 min and then subjected to a 250-mM inwardly directed gradient of urea. After an initial osmotic shrinking phase, the kinetics of increasing cell volume caused by urea influx were measured as the time-course of 90° scattered light intensity at 530 nm, with increasing cell volume resulting in reduced scattered light intensity. As a positive control, 0.7 mM phloretin was added to the RBC suspension prior to stopped-flow experiments. Measurements of water permeability were carried out similarly, with sucrose (cell-impermeant) used instead of urea to establish a 250-mM osmotic gradient. As a positive control, HgCl2 (0.3 mM) was added to the RBC suspension prior to stopped-flow measurements. Osmotic water permeability coefficients (Pf) were computed from light scattering data as described (van Hoek et al., J Biol. Chem. 267:18267-69 (1992)).
This example describes chemical knock-out of UT-B by UT-B inhibitors in RBCs and the effect on UT-B-facilitated water transport. […] Osmotic water permeability was measured by stopped-flow light scattering in RBCs from wild-type and AQP1-null mice as shown in FIG. 8A. […] AQP1-null RBCs had greater than 5-fold reduced Pf compared to wild-type RBCs.

UT = details: cited from earlier work

## O=C(CCc1ccc(O)cc1)c1c(O)cc(O)cc1O [phloretin, reference compound]
Rat UT-A1
  effect on UT-A1-facilitated urea transport: inhibited
RBCs from wild-type mice; 0.7 mM, wild-type mouse RBCs
  reduction in Pf: small but significant reduction
RBCs from wild-type mice; 10° C., 250-mM sucrose gradient
  effect on water transport in RBCs from wild-type mice: little effect
UT
  concentration exhibiting activity as UT inhibitor: > 0.5 mM
